# Experimental data from ChEMBL document CHEMBL4613315, “Design of First-in-Class Dual EZH2/HDAC Inhibitor: Biochemical Activity and Biological Evaluation in Cancer Cells” (ACS Med Chem Lett, 2020).
# Tests used:
# [1] = target: T1, Histone-lysine N-methyltransferase EZH2 (Homo sapiens, UniProt Q15910); experiment: Inhibition of human EZH2 using core histone as substrate incubated for 1 hr by fluorescence based assay
# Target sequence in this assay (Q15910 whole entry): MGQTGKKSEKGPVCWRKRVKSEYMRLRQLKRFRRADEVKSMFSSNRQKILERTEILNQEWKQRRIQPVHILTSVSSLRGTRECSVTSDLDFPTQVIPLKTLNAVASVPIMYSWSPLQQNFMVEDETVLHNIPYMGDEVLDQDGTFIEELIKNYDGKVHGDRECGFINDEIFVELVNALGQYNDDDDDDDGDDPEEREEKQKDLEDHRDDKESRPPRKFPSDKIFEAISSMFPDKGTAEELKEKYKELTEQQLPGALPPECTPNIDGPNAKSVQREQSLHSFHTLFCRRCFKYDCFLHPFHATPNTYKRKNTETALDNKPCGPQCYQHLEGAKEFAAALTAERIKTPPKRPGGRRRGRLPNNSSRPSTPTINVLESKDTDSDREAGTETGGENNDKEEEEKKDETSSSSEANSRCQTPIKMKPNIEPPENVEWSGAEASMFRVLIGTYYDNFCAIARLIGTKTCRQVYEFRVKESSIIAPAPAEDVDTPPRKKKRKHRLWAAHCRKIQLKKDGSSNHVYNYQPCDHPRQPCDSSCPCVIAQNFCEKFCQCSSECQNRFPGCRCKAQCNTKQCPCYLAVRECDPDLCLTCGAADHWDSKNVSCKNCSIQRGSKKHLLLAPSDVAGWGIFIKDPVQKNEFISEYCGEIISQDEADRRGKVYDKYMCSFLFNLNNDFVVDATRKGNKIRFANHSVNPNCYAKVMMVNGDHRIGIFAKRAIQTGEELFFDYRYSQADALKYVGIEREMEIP
# [2] = target: T2, Histone deacetylase 8 (Homo sapiens, UniProt Q9BY41); experiment: Inhibition of human recombinant HDAC8 using AMC-K(Ac)GL as substrate by fluorescence based assay
# T2 sequence (Q9BY41 whole entry): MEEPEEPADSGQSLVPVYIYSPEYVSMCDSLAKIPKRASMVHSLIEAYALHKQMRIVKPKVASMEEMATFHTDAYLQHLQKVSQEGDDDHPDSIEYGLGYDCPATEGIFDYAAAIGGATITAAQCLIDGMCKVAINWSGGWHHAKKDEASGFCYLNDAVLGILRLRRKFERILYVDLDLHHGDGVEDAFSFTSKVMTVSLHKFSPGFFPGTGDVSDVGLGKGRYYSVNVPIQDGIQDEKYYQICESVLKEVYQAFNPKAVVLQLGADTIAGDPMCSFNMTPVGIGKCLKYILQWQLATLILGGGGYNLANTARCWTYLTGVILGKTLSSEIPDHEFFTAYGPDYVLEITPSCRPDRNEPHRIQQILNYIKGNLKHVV
# [3] = target: Histone deacetylase 3 (Homo sapiens, UniProt O15379); experiment: Inhibition of human recombinant HDAC3 using AMC-K(Ac)GL as substrate by fluorescence based assay
# Sequence of Histone deacetylase 3 (O15379 whole entry): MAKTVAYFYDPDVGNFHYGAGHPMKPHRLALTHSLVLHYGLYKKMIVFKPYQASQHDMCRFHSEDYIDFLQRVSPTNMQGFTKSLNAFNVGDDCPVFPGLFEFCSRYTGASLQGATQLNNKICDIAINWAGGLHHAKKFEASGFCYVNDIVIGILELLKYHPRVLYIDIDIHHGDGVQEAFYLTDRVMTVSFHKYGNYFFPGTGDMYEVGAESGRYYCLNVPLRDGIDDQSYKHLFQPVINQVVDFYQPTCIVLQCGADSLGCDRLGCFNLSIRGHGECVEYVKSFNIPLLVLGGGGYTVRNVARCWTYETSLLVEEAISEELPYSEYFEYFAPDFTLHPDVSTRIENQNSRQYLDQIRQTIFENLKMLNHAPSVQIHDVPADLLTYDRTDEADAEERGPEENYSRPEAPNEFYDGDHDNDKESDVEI
# [4] = target: Histone deacetylase 2 (Homo sapiens, UniProt Q92769)
# Sequence of Histone deacetylase 2 (Q92769 whole entry): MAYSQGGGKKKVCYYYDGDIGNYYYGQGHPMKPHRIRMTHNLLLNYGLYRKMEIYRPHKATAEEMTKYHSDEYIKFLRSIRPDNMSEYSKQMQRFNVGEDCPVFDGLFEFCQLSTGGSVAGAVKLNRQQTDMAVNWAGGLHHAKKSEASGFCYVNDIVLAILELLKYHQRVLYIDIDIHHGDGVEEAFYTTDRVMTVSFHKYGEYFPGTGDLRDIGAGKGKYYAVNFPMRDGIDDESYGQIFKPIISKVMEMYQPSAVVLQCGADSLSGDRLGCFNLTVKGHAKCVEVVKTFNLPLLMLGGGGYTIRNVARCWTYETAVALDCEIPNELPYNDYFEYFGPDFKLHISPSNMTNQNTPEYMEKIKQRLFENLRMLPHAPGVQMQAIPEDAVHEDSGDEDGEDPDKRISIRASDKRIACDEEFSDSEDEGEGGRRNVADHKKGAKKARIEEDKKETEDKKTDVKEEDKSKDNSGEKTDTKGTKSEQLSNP
# Description: Inhibition of human recombinant HDAC2 using AMC-K(Ac)GL as substrate by fluorescence based assay
# [5] = target: Histone deacetylase 1 (Homo sapiens, UniProt Q13547); experiment: Inhibition of human recombinant HDAC1 using AMC-K(Ac)GL as substrate by fluorescence based assay
# Sequence of Histone deacetylase 1 (Q13547 whole entry): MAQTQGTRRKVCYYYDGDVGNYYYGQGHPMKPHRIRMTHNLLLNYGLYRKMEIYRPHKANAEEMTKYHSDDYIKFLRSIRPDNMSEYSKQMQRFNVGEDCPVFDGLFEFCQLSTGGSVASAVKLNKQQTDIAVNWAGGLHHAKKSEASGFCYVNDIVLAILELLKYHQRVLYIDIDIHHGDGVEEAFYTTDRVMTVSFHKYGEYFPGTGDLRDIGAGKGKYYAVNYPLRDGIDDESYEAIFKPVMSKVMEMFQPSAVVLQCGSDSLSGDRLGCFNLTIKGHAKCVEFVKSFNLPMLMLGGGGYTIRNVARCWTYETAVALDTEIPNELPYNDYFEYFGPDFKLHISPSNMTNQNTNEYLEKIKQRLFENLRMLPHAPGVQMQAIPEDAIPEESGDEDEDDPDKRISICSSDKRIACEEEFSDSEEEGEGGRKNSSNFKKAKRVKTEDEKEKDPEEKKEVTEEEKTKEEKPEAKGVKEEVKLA
# [6] = target: T3, Protein deacetylase HDAC6 (Homo sapiens, UniProt Q9UBN7); experiment: Inhibition of human recombinant HDAC6 using AMC-K(Ac)GL as substrate by fluorescence based assay
# T3 sequence (Q9UBN7 whole entry): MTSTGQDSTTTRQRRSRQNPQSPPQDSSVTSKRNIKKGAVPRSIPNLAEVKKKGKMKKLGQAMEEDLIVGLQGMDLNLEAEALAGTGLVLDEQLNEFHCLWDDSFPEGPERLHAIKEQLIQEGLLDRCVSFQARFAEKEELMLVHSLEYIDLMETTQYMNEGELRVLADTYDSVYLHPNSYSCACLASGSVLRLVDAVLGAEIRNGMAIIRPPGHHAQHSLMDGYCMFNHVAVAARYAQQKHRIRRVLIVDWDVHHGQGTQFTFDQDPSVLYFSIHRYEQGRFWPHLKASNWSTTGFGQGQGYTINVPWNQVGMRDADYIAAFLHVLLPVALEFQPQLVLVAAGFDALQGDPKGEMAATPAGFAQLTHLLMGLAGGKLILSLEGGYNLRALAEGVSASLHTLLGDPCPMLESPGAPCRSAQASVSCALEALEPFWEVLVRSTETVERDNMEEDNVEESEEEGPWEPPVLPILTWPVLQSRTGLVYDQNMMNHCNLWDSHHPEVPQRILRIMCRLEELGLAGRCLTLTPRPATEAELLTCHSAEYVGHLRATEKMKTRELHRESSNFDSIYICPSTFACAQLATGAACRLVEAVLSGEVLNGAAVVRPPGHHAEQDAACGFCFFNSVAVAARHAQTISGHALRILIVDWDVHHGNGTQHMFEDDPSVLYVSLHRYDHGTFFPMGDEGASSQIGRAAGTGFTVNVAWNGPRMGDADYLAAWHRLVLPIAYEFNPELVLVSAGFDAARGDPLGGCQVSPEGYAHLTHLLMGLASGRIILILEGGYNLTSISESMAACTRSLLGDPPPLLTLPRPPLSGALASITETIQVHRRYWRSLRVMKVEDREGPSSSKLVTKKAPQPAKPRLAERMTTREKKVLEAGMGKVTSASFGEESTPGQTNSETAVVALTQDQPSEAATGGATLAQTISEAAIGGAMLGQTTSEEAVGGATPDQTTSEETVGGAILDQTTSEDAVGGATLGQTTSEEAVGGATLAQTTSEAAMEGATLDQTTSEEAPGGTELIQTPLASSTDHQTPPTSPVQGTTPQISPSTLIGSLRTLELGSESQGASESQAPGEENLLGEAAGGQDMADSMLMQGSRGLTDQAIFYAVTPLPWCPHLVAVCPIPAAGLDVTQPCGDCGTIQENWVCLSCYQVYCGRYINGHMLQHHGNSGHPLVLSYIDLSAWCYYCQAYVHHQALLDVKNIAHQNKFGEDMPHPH
# [7] = target: Histone deacetylase 5 (Homo sapiens, UniProt Q9UQL6); experiment: Inhibition of human recombinant HDAC5 using AMC-K(TFA)GL as substrate by fluorescence based assay
# Sequence of Histone deacetylase 5 (Q9UQL6 whole entry): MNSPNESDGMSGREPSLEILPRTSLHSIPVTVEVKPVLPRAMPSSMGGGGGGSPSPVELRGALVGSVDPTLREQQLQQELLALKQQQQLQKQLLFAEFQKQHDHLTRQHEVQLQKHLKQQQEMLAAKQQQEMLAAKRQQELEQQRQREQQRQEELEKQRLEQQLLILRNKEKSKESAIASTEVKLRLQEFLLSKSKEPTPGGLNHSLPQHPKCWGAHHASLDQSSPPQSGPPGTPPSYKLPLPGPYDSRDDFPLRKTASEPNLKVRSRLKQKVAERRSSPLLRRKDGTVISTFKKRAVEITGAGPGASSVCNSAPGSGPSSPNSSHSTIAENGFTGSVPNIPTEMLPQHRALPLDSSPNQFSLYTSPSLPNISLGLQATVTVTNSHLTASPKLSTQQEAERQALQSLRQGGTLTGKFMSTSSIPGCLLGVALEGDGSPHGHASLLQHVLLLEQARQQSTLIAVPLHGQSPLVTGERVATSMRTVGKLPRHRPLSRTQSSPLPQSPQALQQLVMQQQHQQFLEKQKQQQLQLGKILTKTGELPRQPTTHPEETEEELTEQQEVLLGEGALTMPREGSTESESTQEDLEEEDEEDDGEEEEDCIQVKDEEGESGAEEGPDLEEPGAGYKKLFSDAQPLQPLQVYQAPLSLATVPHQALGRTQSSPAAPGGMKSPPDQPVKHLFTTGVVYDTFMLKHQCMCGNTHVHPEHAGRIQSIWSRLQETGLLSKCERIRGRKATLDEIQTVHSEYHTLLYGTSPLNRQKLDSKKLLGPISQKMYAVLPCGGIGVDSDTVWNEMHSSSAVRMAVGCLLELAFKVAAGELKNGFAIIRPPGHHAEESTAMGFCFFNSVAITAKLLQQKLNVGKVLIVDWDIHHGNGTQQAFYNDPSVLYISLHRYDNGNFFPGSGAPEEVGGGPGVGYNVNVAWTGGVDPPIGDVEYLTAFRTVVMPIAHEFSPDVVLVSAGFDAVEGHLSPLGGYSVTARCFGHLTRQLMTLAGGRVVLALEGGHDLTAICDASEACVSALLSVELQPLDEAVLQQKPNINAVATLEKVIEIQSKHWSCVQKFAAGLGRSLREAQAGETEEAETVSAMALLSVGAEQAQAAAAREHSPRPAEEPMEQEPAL
# [8] = target: T1, Histone-lysine N-methyltransferase EZH2; experiment: Inhibition of human EZH2 using core histone as substrate at 100 uM incubated for 1 hr by fluorescence based assay relative to control
# Target sequence in this assay (Q15910 whole entry, looked up): as the sequence (Q15910 whole entry) above
IC50 [1] [nM],IC50 [2] [nM],IC50 [3] [nM],IC50 [4] [nM],IC50 [5] [nM],IC50 [6] [nM],IC50 [7] [nM],inhibition [8] [%],Compound
15400,,,,,,,,Cc1cc(C)c(CNC(=O)c2cnn(-c3ccccc3)c2C)c(=O)[nH]1
,2080,1480,2360,830,10,101000,4,Cc1cc(C)c(CNC(=O)c2cnn(-c3cccc(NC(=O)CCCCCCC(=O)NO)c3)c2C)c(=O)[nH]1
